From ChEMBL document CHEMBL4196074, “Metallomics for Alzheimer's disease treatment: Use of new generation of chelators combining metal-cation binding and transport properties” (Eur J Med Chem, 2018) come the findings set out here.

Activity calls are given as the source filed them. Unless noted, the calls are words filed in the database; no cut-off is given here.

A short description of data set [1]: Metal chelating activity assessed as compound-Cu2+ complex formation by UV-vis spectrophotometric analysis.
The nature of data set [2]: Metal chelating activity assessed as compound-Fe3+ complex formation by UV-vis spectrophotometric analysis.
Data set [3] can be described thus: Metal chelating activity assessed as compound-Zn2+ complex formation by UV-vis spectrophotometric analysis.
For data set [4], the system named is SH-SY5Y. As to the kind of experiment: Neuroprotective activity against amyloid beta (1 to 42 residues) induced cell death in human SH-SY5Y cells expressing APPswe mutant at 1 uM after 48 hrs by WST1 assay. The class given is functional, cell-based. A general note: Formazan colour is commonly taken as a measure of viable cells.
The subject of data set [5] is SH-SY5Y. The data set can be described thus: Inhibition of Cu2+-mediated amyloid beta (1 to 42 residues) production in human SH-SY5Y cells expressing APPswe mutant at 1 uM after 72 hrs by ELISA based spectrophotometric analysis. In kind it is cell-based. For orientation: An ELISA detects its analyte on a solid surface through an enzyme-linked reagent.
Data set [6] deals with SH-SY5Y. As to the kind of experiment: Inhibition of Fe3+-mediated amyloid beta (1 to 42 residues) production in human SH-SY5Y cells expressing APPswe mutant at 1 uM after 72 hrs by ELISA based spectrophotometric analysis. In kind it is cell-based.
Data set [7] concerns SH-SY5Y. The data set can be described thus: Antiproliferative activity against human SH-SY5Y cells at 1 uM after 48 hrs by WST1 assay. In kind it is cell-based.
Data set [8] deals with SH-SY5Y. As to the kind of experiment: Inhibition of Zn2+-mediated amyloid beta (1 to 42 residues) production in human SH-SY5Y cells expressing APPswe mutant at 1 uM after 72 hrs by ELISA based spectrophotometric analysis. The class given is cell-based.
Data set [9] relates to SH-SY5Y. The data set can be described thus: Antiproliferative activity against human SH-SY5Y cells at 1 uM after 24 to 72 hrs by WST1 assay. In kind it is cell-based.
Data set [10] relates to SH-SY5Y. The data set can be described thus: Inhibition of Fe3+-mediated ROS generation in human SH-SY5Y cells expressing APPswe mutant at 1 uM after 72 hrs by DCF-DA dye-based fluorescence spectroscopic analysis. The class given is cell-based.
The target in data set [11] is Acetylcholinesterase (Homo sapiens) (UniProt P22303). The data set can be described thus: Inhibition of acetylcholinesterase (unknown origin) at 1 uM using acetylthiocholine chloride as substrate measured for 5 to 40 mins.
Data set [12] concerns SH-SY5Y. The data set can be described thus: Inhibition of Zn2+-mediated ROS generation in human SH-SY5Y cells expressing APPswe mutant at 1 uM after 72 hrs by DCF-DA dye-based fluorescence spectroscopic analysis. The class given is cell-based.
Data set [13] concerns SH-SY5Y. As to the kind of experiment: Inhibition of Cu2+-mediated ROS generation in human SH-SY5Y cells expressing APPswe mutant at 1 uM after 72 hrs by DCF-DA dye-based fluorescence spectroscopic analysis. The class given is cell-based.
Data set [14] can be described thus: Effective permeability of the compound at 10^-5 mol/L after 5 hrs by UV-based PAMPA. The class given is ADME. The conditions noted are these: read-out: Peff. On the technique in general: In PAMPA a lipid-coated filter parts donor from acceptor wells.
Data set [15] has as its system SH-SY5Y. As to the kind of experiment: Inhibition of Fe3+-induced caspase-3 activity in human SH-SY5Y cells expressing APPswe mutant at 1 uM after 72 hrs by AcDEVD substrate-based spectrophotometric analysis. The class given is cell-based.
Data set [16] has as its system SH-SY5Y. As to the kind of experiment: Inhibition of Cu2+-induced caspase-3 activity in human SH-SY5Y cells expressing APPswe mutant at 1 uM after 72 hrs by AcDEVD substrate-based spectrophotometric analysis. In kind it is cell-based.
In data set [17] the test system is SH-SY5Y. The data set can be described thus: Inhibition of Cu2+-induced toxicity in human SH-SY5Y cells expressing APPswe mutant assessed as increase in cell viability at 1 uM after 72 hrs by WST1 assay. In kind it is cell-based.
Data set [18] relates to SH-SY5Y. As to the kind of experiment: Inhibition of Fe3+-induced toxicity in human SH-SY5Y cells expressing APPswe mutant assessed as increase in cell viability at 1 uM after 72 hrs by WST1 assay. In kind it is cell-based.

Chain of Acetylcholinesterase (Homo sapiens) (P22303 whole entry): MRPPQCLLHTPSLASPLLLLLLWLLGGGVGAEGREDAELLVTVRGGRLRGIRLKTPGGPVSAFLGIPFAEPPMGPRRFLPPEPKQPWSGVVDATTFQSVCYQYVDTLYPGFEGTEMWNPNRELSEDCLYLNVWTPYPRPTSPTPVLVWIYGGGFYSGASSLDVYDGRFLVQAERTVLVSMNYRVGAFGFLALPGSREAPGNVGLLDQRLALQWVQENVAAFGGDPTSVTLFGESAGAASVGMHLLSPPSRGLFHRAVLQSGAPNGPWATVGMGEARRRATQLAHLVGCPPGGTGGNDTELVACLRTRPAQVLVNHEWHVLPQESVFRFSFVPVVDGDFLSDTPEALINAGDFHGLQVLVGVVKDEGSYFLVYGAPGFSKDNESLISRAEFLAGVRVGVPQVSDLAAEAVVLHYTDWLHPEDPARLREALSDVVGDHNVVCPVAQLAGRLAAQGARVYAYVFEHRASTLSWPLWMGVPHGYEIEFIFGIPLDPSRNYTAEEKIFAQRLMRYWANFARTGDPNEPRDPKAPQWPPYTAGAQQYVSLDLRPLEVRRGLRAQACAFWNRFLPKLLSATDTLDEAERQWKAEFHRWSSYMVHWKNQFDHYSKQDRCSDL

Consider `c1ccc(C(=NNc2nncc3ccccc23)c2ccccn2)nc1`, for which the result in data set [1], in data set [2] and in [3] was Active. Further, in the data set on SH-SY5Y [4], the result was inactive. The inhibition entry with SH-SY5Y [5], with SH-SY5Y [6] and in the data set on SH-SY5Y [8] was “inactive” throughout. For the same compound, in the data set on SH-SY5Y [7], the Activity entry is recorded as “Toxic”.

In the case of `C(=N\Nc1nncc2ccccc12)/c1ccc2ccccc2n1`, the outcome in data set [1] was Active. The result (in data set [2]; in data set [3]; in the data set on SH-SY5Y [4]) was inactive. Besides, the inhibition result with SH-SY5Y [5] was “inactive”. Moreover, the Activity entry with SH-SY5Y [7] is given as “Toxic”.

Regarding `COc1cccc(/C=N/NC(=O)c2ccc(NC(=O)CC[C@@H](C)[C@H]3CC[C@H]4[C@@H]5[C@H](O)C[C@@H]6C[C@H](O)CC[C@]6(C)[C@H]5C[C@H](O)[C@]34C)cc2)c1O` (stereo in doubt), the Activity result in the data set on SH-SY5Y [9] is listed as “Non-Toxic”. The inhibition result (in the data set on SH-SY5Y [10]; in [11]; in the data set with SH-SY5Y [12]; in the data set on SH-SY5Y [13]; in the data set on SH-SY5Y [5]; with SH-SY5Y [6]) was “inactive” each time. Moreover, in the data set on SH-SY5Y [8], the inhibition entry was “inactive”. In addition, the result in [1], in data set [2] and in data set [3] was Active. The outcome in the data set with SH-SY5Y [4] was inactive.

For the compound `CC(C)(C)c1ccc(O)c(/C=N/Nc2nncc3ccccc23)c1`, the outcome in data set [1], in [2] and in [3] was Active. The result in the data set with SH-SY5Y [4] was inactive. In addition, the inhibition entry in the data set with SH-SY5Y [5], in the data set on SH-SY5Y [6] and with SH-SY5Y [8] was “inactive” each time. In the data set on SH-SY5Y [7], the Activity result is “Toxic”.

For `CCN1/C(=C/c2c(N/N=C/c3ccc4ccccc4n3)c(=O)c2=O)Sc2ccccc21`, the Activity entry in the data set with SH-SY5Y [9] is “Non-Toxic”. In addition, the inhibition entry (in the data set with SH-SY5Y [10]; in [11]; in the data set on SH-SY5Y [12]; with SH-SY5Y [13]; in the data set on SH-SY5Y [5]; with SH-SY5Y [6]) was “inactive” throughout. Moreover, in the data set on SH-SY5Y [8], the inhibition entry was “inactive”. Also, the outcome in data set [1], in data set [2] and in [3] was Active. Further, the outcome in the data set with SH-SY5Y [4] was inactive.

Turning to `CCN1/C(=C/c2c(N/N=C/c3c(CO)cnc(C)c3O)c(=O)c2=O)Sc2ccccc21`, the Activity entry in the data set on SH-SY5Y [9] is given as “Non-Toxic”. Moreover, the inhibition result (with SH-SY5Y [10]; in data set [11]; with SH-SY5Y [13]; with SH-SY5Y [5]; with SH-SY5Y [6]) was “inactive” each time. Besides, the outcome in data set [1] and in [2] was Active. The result (in data set [3]; in the data set with SH-SY5Y [4]) was inactive. In addition, in data set [14], the Papp at 5 h, 10 µM is 2.8 ×10⁻⁶ cm/s.

Turning to `C[C@H](CCC(=O)NN=C(c1ccccn1)c1ccccn1)[C@H]1CC[C@H]2[C@@H]3[C@H](O)C[C@@H]4C[C@H](O)CC[C@]4(C)[C@H]3C[C@H](O)[C@]12C`, the Activity result in the data set with SH-SY5Y [9] is on record as “Non-Toxic”. Further, the inhibition result in the data set on SH-SY5Y [15], in the data set on SH-SY5Y [16], in the data set with SH-SY5Y [17], in the data set with SH-SY5Y [5], in the data set on SH-SY5Y [6] and in the data set with SH-SY5Y [18] was “Active” each time. The outcome (in data set [1]; in data set [2]; in the data set on SH-SY5Y [4]) was Active. In data set [11], the inhibition entry was “inactive”. The outcome in [3] was inactive.

Take `Cc1ncc(CO)c(/C=N/Nc2nncc3ccccc23)c1O`: the outcome in data set [1] and in data set [2] was Active. Also, the result (in data set [3]; in the data set with SH-SY5Y [4]) was inactive. For the same compound, the inhibition entry in the data set on SH-SY5Y [5] and in the data set with SH-SY5Y [6] was “inactive” each time. For the same compound, the Activity entry with SH-SY5Y [7] is recorded as “Toxic”. For the same compound, the Papp at 5 h, 10 µM in data set [14] came out at 7.8 ×10⁻⁶ cm/s.

As to `Cc1ncc(CO)c(/C=N/NC(=O)c2ccc(NC(=O)CC[C@@H](C)[C@H]3CC[C@H]4[C@@H]5[C@H](O)C[C@@H]6C[C@H](O)CC[C@]6(C)[C@H]5C[C@H](O)[C@]34C)cc2)c1O` (stereo in doubt), the Activity result in the data set with SH-SY5Y [9] is recorded as “Non-Toxic”. Moreover, the inhibition result (in the data set on SH-SY5Y [10]; in [11]; in the data set on SH-SY5Y [12]; in the data set with SH-SY5Y [13]; in the data set on SH-SY5Y [5]; with SH-SY5Y [6]) was “inactive” each time. Besides, the inhibition entry with SH-SY5Y [8] was “inactive”. Further, the result in [1], in [2] and in data set [3] was Active. Also, in the data set on SH-SY5Y [4], the result was inactive. In addition, in data set [14], the Papp at 5 h, 10 µM was determined as 2.2 ×10⁻⁶ cm/s.

Take `COc1ccc(Nc2c(N/N=C/c3c(CO)cnc(C)c3O)c(=O)c2=O)cc1`: in the data set on SH-SY5Y [9], the Activity entry is “Non-Toxic”. The inhibition entry (in the data set with SH-SY5Y [10]; in [11]; in the data set with SH-SY5Y [13]; with SH-SY5Y [5]; with SH-SY5Y [6]) was “inactive” throughout. In addition, the result in data set [1] and in data set [2] was Active. Also, the outcome (in data set [3]; with SH-SY5Y [4]) was inactive. The Papp at 5 h, 10 µM in data set [14] was 1.6 ×10⁻⁶ cm/s.

For the compound `COc1cccc(/C=N/NC(=O)CC[C@@H](C)[C@H]2CC[C@H]3[C@@H]4[C@H](O)C[C@@H]5C[C@H](O)CC[C@]5(C)[C@H]4C[C@H](O)[C@]23C)c1O`, the Activity entry with SH-SY5Y [9] is “Non-Toxic”. Moreover, the outcome (in data set [1]; in the data set on SH-SY5Y [4]) was Active. The result in [2] and in data set [3] was inactive. For the same compound, the inhibition result (in data set [11]; in the data set on SH-SY5Y [5]) was “inactive” each time. For the same compound, the inhibition entry in the data set on SH-SY5Y [16] and with SH-SY5Y [17] was “Active” in each case.

On to `COc1cccc(/C=N/Nc2nncc3ccccc23)c1O`, for which the outcome in data set [1], in [2] and in data set [3] was Active. In addition, the result with SH-SY5Y [4] was inactive. Also, the inhibition result in the data set on SH-SY5Y [5], in the data set with SH-SY5Y [6] and in the data set with SH-SY5Y [8] was “inactive” throughout. Besides, the Activity result in the data set with SH-SY5Y [7] is recorded as “Toxic”.

Take `C[C@H](CCC(=O)Nc1ccc(C(=O)N/N=C/c2ccc3ccccc3n2)cc1)[C@H]1CC[C@H]2[C@@H]3[C@H](O)C[C@@H]4C[C@H](O)CC[C@]4(C)[C@H]3C[C@H](O)[C@]12C` (stereo in doubt): the Activity entry with SH-SY5Y [9] is on record as “Non-Toxic”. Further, the inhibition entry (with SH-SY5Y [10]; in data set [11]; with SH-SY5Y [12]; in the data set on SH-SY5Y [13]; with SH-SY5Y [5]; with SH-SY5Y [6]) was “inactive” in each case. The inhibition result with SH-SY5Y [8] is “inactive”. In addition, the result in data set [1], in data set [2] and in [3] was Active. Besides, the outcome with SH-SY5Y [4] was inactive.

Take `C[C@H](CCC(=O)Nc1ccc(C(=O)N/N=C/c2ccc(C(C)(C)C)cc2O)cc1)[C@H]1CC[C@H]2[C@@H]3[C@H](O)C[C@@H]4C[C@H](O)CC[C@]4(C)[C@H]3C[C@H](O)[C@]12C` (stereo in doubt): in the data set with SH-SY5Y [9], the Activity entry is “Non-Toxic”. The inhibition result (in the data set on SH-SY5Y [10]; in data set [11]; in the data set on SH-SY5Y [12]; with SH-SY5Y [13]; in the data set with SH-SY5Y [5]; in the data set with SH-SY5Y [6]) was “inactive” throughout. In addition, in the data set on SH-SY5Y [8], the inhibition entry is “inactive”. The result in [1], in data set [2] and in [3] was Active. In the data set with SH-SY5Y [4], the outcome was inactive.
